“And” between values parts separate entries of the source, which are not always exact repeats. Identical values can stand only once.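 Results reflect a 48-hour exposure of cells in 96-well plates to compound at five concentrations. GI50 is the concentration that inhibits growth by half. TGI is the concentration that stops growth completely.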
Key:
Assay in all cases: inhibition of tumour cell growth, NCI panel, 48 h
PC-3 prostate = tested on: PC-3 prostate
DU-145 prostate = tested on: DU-145 prostate
NCI/ADR-RES ovarian = tested on: NCI/ADR-RES ovarian
MDA-MB-231 breast = tested on: MDA-MB-231 breast
MCF7 breast = tested on: MCF7 breast
DMS 273 small cell lung = tested on: DMS 273 small cell lung
XF 498 CNS = tested on: XF 498 CNS
M19-MEL melanoma = tested on: M19-MEL melanoma
DMS 114 small cell lung = tested on: DMS 114 small cell lung
LXFL 529 NSCLC = tested on: LXFL 529 NSCLC

Row | SMILES | GI50 (PC-3 prostate) | TGI (PC-3 prostate) | GI50 (DU-145 prostate) | TGI (DU-145 prostate) | GI50 (NCI/ADR-RES ovarian) | TGI (NCI/ADR-RES ovarian) | GI50 (MDA-MB-231 breast) | TGI (MDA-MB-231 breast) | GI50 (MCF7 breast) | TGI (MCF7 breast) | TGI (DMS 273 small cell lung) | TGI (XF 498 CNS) | TGI (M19-MEL melanoma) | TGI (DMS 114 small cell lung) | TGI (LXFL 529 NSCLC)
1 | COc1ccc(C2=CSc3cc(Cl)c(C)cc3S(=O)(=O)N2C(C)=O)cc1 | 21.8 µM | 82.1 µM | 38.4 µM | > 100 µM | 26.8 µM | 66.7 µM | 14.5 µM | 37.9 µM | 46.2 µM | > 100 µM |  |  |  |  | 
2 | COc1cc(/C=C/c2cc(/C=C/c3ccc(O)c(OC)c3)n(C(=O)Nc3ccc(F)cc3)n2)ccc1O | 0.957 µM | 12.8 µM | 1.53 µM | 11.4 µM | 0.449 µM | 27.4 µM | 2.16 µM | > 65.3 µM | 0.402 µM | 7.66 µM |  |  |  |  | 
3 | CCOC(=O)C(Sc1ccccc1)c1c(OC)cc(=O)oc1/C=[N+](/[O-])c1ccc(N(C)C)cc1 (stereo unspecified) |  |  |  |  |  |  |  |  |  |  | 29 µM | 27.7 µM | 37.5 µM | 42.9 µM | 27.2 µM
4 | CCNC1C2(CCCCC2)NC(=O)C12CCCCC2 (stereo unspecified) |  |  |  |  |  |  |  |  |  |  | > 100 µM | > 100 µM | > 100 µM | > 100 µM | > 100 µM
5 | N#CC(C#N)=c1ccc(=C2NCC3CCCN23)cc1 (stereo unspecified) |  |  |  |  |  |  |  |  |  |  | > 100 µM |  | > 100 µM | > 100 µM | > 100 µM
6 | Oc1ccc(Cl)cc1-c1cc(-c2ccccc2Cl)[nH]n1 | 3.02 µM | > 100 µM | 8.05 µM | > 100 µM | 8.55 µM | > 100 µM | 1.44 µM | 6.29 µM | 0.362 µM | > 100 µM |  |  |  |  | 
7 | Nc1ccc(C(=O)N/C(=C\c2ccc3c(c2)OCO3)c2nc3[nH]c(=S)[nH]c(=O)c3[nH]2)cc1 |  |  |  |  |  |  |  |  |  |  |  | > 100 µM | > 100 µM |  | > 100 µM
8 | CCN(CC)CC(C(=O)Nc1c(C)cccc1C)/C(C)=N\NC(=O)C[N+](C)(C)C (stereo unspecified) |  |  |  |  |  |  |  |  |  |  | > 100 µM | > 100 µM | > 100 µM | > 100 µM | > 100 µM
9 | COc1ccc(-n2/c(=N/C(=S)N(C)C)ss/c2=N\C(=S)N(C)C)cc1 |  |  |  |  |  |  |  |  |  |  | > 100 µM |  | > 100 µM | > 100 µM | 
10 | Clc1cccc(Cc2cn3cc(-c4ccccc4)nc3s2)c1Cl | 53.7 µM | > 100 µM | 22.4 µM | > 100 µM | 76.4 µM | > 100 µM | 3.08 µM | > 100 µM | 11.5 µM | > 100 µM |  |  |  |  | 
11 | O=C(N/C(=C\c1cc(Cl)ccc1Cl)c1nc2[nH]c(=S)[nH]c(=O)c2[nH]1)c1ccccc1 |  |  |  |  |  |  |  |  |  |  |  | > 100 µM | > 68.6 µM | > 82.5 µM | 45.2 µM
12 | CCOC(=O)COc1cccc2c1C(=O)CCO2 |  |  |  |  |  |  |  |  |  |  | > 100 µM | > 100 µM | > 100 µM | > 100 µM | > 100 µM
13 | Nc1cc2nc3ccccc3sc-2cc1=O | 1.51 µM | 21.8 µM | 1.77 µM | 3.25 µM | 2.96 µM | 16.7 µM | 1.76 µM | 11.8 µM | 2.38 µM | 9.63 µM |  |  |  |  | 
14 | CC1(C)OC(=O)C(=Cc2ccc(O)cc2)C(=O)O1 |  |  |  |  |  |  |  |  |  |  | > 100 µM | > 100 µM | > 100 µM | > 100 µM | > 100 µM
15 | Cc1ccc(-c2nnc(-c3ccc4ccccc4c3)o2)cc1 |  | > 100 µM |  | > 100 µM |  | > 79.2 µM |  | > 100 µM |  | > 100 µM |  |  |  |  | 
16 | O=C1c2ccccc2C(=O)c2sc(Nc3cccc(Cl)c3)nc21 | 1.89 µM | 6.75 µM |  |  | 2.01 µM | 4.78 µM | 0.292 µM | 3.37 µM | 0.596 µM | 2.46 µM | 3.59 µM | 3.18 µM | 0.89 µM | 2.97 µM | 2.86 µM
17 | CCOC(=O)Nc1nc2ccc(OCC)cc2s1 | > 100 µM | > 100 µM | > 100 µM | > 100 µM | 7.39 µM | > 100 µM | > 100 µM | > 100 µM | 4.14 µM | > 100 µM |  |  |  |  | 
18 | C/C(CCn1[nH]c(=O)ccc1=O)=N\O |  |  |  |  |  |  |  |  |  |  | > 100 µM | > 100 µM | > 100 µM | > 100 µM | > 100 µM
19 | O=C1NNC(=O)c2ccccc2SSc2ccccc2C(=O)NNC(=O)c2ccccc2SSc2ccccc21 | 24.7 µM | 50 µM and > 100 µM | 5 µM | 50 µM and 33.6 µM | 14 µM | 50 µM and > 100 µM | 11.4 µM | 50 µM and > 100 µM |  | > 100 µM |  |  |  |  | 

— PubChem BioAssay (NCI)
